Patent US20250257075A1, “MACROCYCLIC INHIBITORS OF KRAS FOR THE TREATMENT OF CANCER” (Hoffmann-La Roche Inc., priority 2022, published 2025)

How the values were obtained:
Format in all cases: cell-based
Settings in all cases: Homo sapiens, MIA PaCa-2, 72 h, 3 d, CellTiter-Glo
[1] = test system: Miapaca-2 mutant cells KRAS G12C + V8A; assay: Stable KRAS mutant cell line viability assay (CTG), G12C + V8A
Excerpt: (§1) The aim of the study was to determine the potency and efficacy of compounds for cell proliferation using CellTiter-Glo® (CTG) Luminescent Cell Viability Assay (Promega Corp., Madison, WI). We cloned […] KRAS^G12C variant sequences with secondary mutations (V8A, V9Y, S17E, T58I, A59T, S65W, R68S, D69P, M72I, D92R, H95N, Y96D, Q99F, Q99W, Y96H, and F156L) into the Miapaca-2. Totally 14 stable Miapaca-2 mutant cell lines were established through lentivirus infection. For the cell viability assay, cells were dosed with compounds in a 9-point dose-response using a 4 fold dilution series at a top dose of 10 μM. KRAS mutant cells were maintained in DMEM+10% FBS+2.5% HI Horse serum+1% PS+1 μg/mL Puromycin and seeded into 96-well plates at 800-1,500 cells per well 24 h before compound addition and then incubated with compound for 3 d before assaying viability (CellTiter-Glo, Promega). Assays were performed in biological duplicates. Nonlinear regression curves were fitted using Xfit. IC50 (absolute IC50) is the dose at which the estimated viability is 50% relative to untreated wells.

[2] = test system: Miapaca-2 mutant cells KRAS G12C + V9Y; assay: Stable KRAS mutant cell line viability assay (CTG), G12C + V9Y
Excerpt: as §1

[3] = test system: Miapaca-2 mutant cells KRAS G12C + S17E; assay: Stable KRAS mutant cell line viability assay (CTG), G12C + S17E
Excerpt: as §1

[4] = test system: Miapaca-2 mutant cells KRAS G12C + A59T; assay: Stable KRAS mutant cell line viability assay (CTG), G12C + A59T
Excerpt: as §1

[5] = test system: Miapaca-2 mutant cells KRAS G12C + D60P; assay: Stable KRAS mutant cell line viability assay (CTG), G12C + D60P
[6] = test system: Miapaca-2 mutant cells KRAS G12C + R68S; assay: Stable KRAS mutant cell line viability assay (CTG), G12C + R68S
Excerpt: as §1

[7] = test system: Miapaca-2 mutant cells KRAS G12C + M72I; assay: Stable KRAS mutant cell line viability assay (CTG), G12C + M72I
Excerpt: as §1

[8] = test system: Miapaca-2 mutant cells KRAS G12C + H95N; assay: Stable KRAS mutant cell line viability assay (CTG), G12C + H95N
Excerpt: as §1

[9] = test system: Miapaca-2 mutant cells KRAS G12C + Y96D; assay: Stable KRAS mutant cell line viability assay (CTG), G12C + Y96D
Excerpt: as §1

Structure (SMILES): CCn1c(-c2cc(N3CCOCC3)cnc2[C@H](C)OC)c2c3cc(c(F)cc31)-c1csc(n1)C[C@H](NC(=O)[C@H](C(C)C)N(C)C(=O)[C@H]1C[C@@H](C#CC(F)(F)F)C1)C(=O)N1CCC[C@H](N1)C(=O)OCC(C)(C)C2 (atropisomer, axis not shown; (M)) [Example 11, cis-N-[(1S)-1-[[(7S,13S)-21-ethyl-24-fluoro-(20M)-20-[2-[(1S)-1-methoxyethyl]-5-morpholino-3-pyridyl]-17,17-dimethyl-8,14-dioxo-15-oxa-4-thia-9,21,27,28-tetrazapentacyclo[17.5.2.1^2,5.1^9,13.0^22,26]octacosa-1(25),2,5(28),19,22(26),23-hexaen-7-yl]carbamoyl]-2-methyl-propyl]-N-methyl-3-(3,3,3-trifluoroprop-1-ynyl)cyclobutanecarboxamide]
- IC50 [1]: 0.001 µM
- IC50 [2]: 0.003 µM
- IC50 [3]: 0.003 µM
- IC50 [4]: 0.032 µM
- IC50 [5]: 0.097 µM
- IC50 [6]: 0.022 µM
- IC50 [7]: 0.001 µM
- IC50 [8]: 0.003 µM
- IC50 [9]: 0.006 µM
